Data from US20090264415A2 (priority 2004, published 2009).

System: peripheral blood mononuclear cells (PBMC) stimulated with allogeneic PBMC or EBV-transformed human B cells (RPMI1788)
Test: Mixed lymphocyte reaction (MLR) assay
Format: cell-based
Conditions: Homo sapiens, RPMI-1788; MLR assay of example 319; read-out: MLR IC50
How it was run: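 Compounds, held as 10 mM DMSO stocks and diluted in culture medium, were added to PBMC stimulated by 30 Gy-irradiated allogeneic PBMC or RPMI1788 cells. Proliferation was read as [3H]-thymidine uptake (1 μCi, final 16 h) after 5 days at 37° C. Inhibition was derived from cpm.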

Compound | IC50
Nc1nc(N2CCN(CC(=O)OCc3ccc(Cl)cc3)CC2)c2nc(-c3ccc(F)cc3)ccc2n1 [Example 475, {4-[2-amino-6-(4-fluorophenyl)-pyrido[3,2-d]pyrimidin-4-yl]-piperazin-1-yl}-acetic acid 4-chloro-benzyl ester] | 4200 nM
Nc1nc(N2CCN(C(=O)CNC(=O)c3ccc(Cl)cc3)CC2)c2nc(-c3ccc(F)cc3)ccc2n1 [Example 476, N-(2-{4-[2-amino-6-(4-fluorophenyl)-pyrido[3,2-d]pyrimidin-4-yl]-piperazin-1-yl}-2-oxoethyl)-4-chlorobenzamide] | 60 nM
Nc1nc(N2CCN(C(=O)CNC(=O)c3ccccc3)CC2)c2nc(-c3ccc(F)cc3)ccc2n1 [Example 478, N-(2-{4-[2-amino-6-(4-fluorophenyl)-pyrido[3,2-d]pyrimidin-4-yl]-piperazin-1-yl}-2-oxoethyl)benzamide] | 5 nM
Nc1nc(NC2CCN(C(=O)COc3ccc(Cl)cc3)CC2)c2nc(-c3ccc(F)cc3)ccc2n1 [Example 480, 2-amino-4-[1-(4-chlorophenoxyacetyl)piperid-4-ylamino]-6-(4-fluorophenyl)-pyrido[3,2-d]pyrimidine] | 2200 nM
C[C@@H]1CN(C(=O)OC(C)(C)C)CCN1c1nc(N)nc2ccc(-c3ccc(F)cc3)nc12 [Example 481, (R)-4-[2-amino-6-(4-fluorophenyl)-pyrido[3,2-d]pyrimidin-4-yl]-3-methylpiperazine-1-carboxylic acid tert-butyl ester] | > 10000 nM
C[C@@H]1CN(C(=O)COc2ccc(Cl)cc2)CCN1c1nc(N)nc2ccc(-c3ccc(F)cc3)nc12 [Example 482, (R)-2-amino-4-[4-(4-chlorophenoxyacetyl)-2-methylpiperazin-1-yl]-6-(4-fluorophenyl)-pyrido[3,2-d]pyrimidine] | 500 nM
CC(C)(C)OC(=O)N1C[C@@H]2C[C@H]1CN2c1nc(N)nc2ccc(-c3ccc(F)cc3)nc12 [Example 483, (S,S)-5-[2-amino-6-(4-fluorophenyl)-pyrido[3,2-d]pyrimidin-4-yl]-2,5-diaza-bicyclo[2.2.1]heptane-2-carboxylic acid tert-butyl ester] | 6100 nM
Nc1nc(N2C[C@@H]3C[C@H]2CN3C(=O)COc2ccc(Cl)cc2)c2nc(-c3ccc(F)cc3)ccc2n1 [Example 484, (S,S)-1-{5-[2-amino-6-(4-fluorophenyl)-pyrido[3,2-d]pyrimidin-4-yl]-2,5-diaza-bicyclo[2.2.1]hept-2-yl}-2-(4-chlorophenoxy)-ethanone] | 2600 nM
Nc1nc(NC2CCN(C(=O)COc3ccccc3)CC2)c2nc(-c3ccc(F)cc3)ccc2n1 [Example 485, 2-amino-4-[1-(phenoxyacetyl)piperid-4-ylamino]-6-(4-fluorophenyl)-pyrido[3,2-d]pyrimidine] | 300 nM
C[C@H]1CN(C(=O)OCc2ccccc2)CCN1c1nc(N)nc2ccc(-c3ccc(F)cc3)nc12 [Example 486, (S)-4-[2-amino-6-(4-fluorophenyl)-pyrido[3,2-d]pyrimidin-4-yl]-3-methylpiperazine-1-carboxylic acid benzyl ester] | 800 nM
C[C@@H]1CN(C(=O)c2ccccc2)CCN1c1nc(N)nc2ccc(-c3ccc(F)cc3)nc12 [Example 487, (R)-2-amino-4-(4-benzoyl-2-methylpiperazin-1-yl)-6-(4-fluorophenyl)-pyrido[3,2-d]pyrimidine] | 7500 nM
C[C@H]1CN(C(=O)COc2ccc(Cl)cc2)CCN1c1nc(N)nc2ccc(-c3ccc(F)cc3)nc12 [Example 489, (S)-2-amino-4-[4-(4-chlorophenoxyacetyl)-2-methylpiperazin-1-yl]-6-(4-fluorophenyl)-pyrido[3,2-d]pyrimidine] | 5 nM
Nc1nc(N2CCN(C(=O)CC(=O)Nc3ccc(Cl)cc3)CC2)c2nc(-c3ccc(F)cc3)ccc2n1 [Example 490, 2-amino-4-[4-(4-chlorophenylcarbamoyl-acetyl)piperazin-1-yl]-6-(4-fluorophenyl)-pyrido[3,2-d]pyrimidine] | 340 nM
Nc1nc(N2CCN(C(=O)COc3ccc(Cl)cc3)CC2)c2nc(Cl)ccc2n1 [Example 492, 2-amino-4-(N-(4-chlorophenoxyacetyl)-piperazin-1-yl)-6-chloro-pyrido[3,2-d]pyrimidine] | 80 nM
CCOc1ccc(-c2ccc3nc(N)nc(N4CCN(C(=O)COc5ccc(Cl)cc5)CC4)c3n2)cc1Cl [Example 493, 2-amino-4-[N-(4-chlorophenoxyacetyl)-piperazin-1-yl]-6-(3-chloro-4-ethoxyphenyl)-pyrido(3,2-d)pyrimidine] | 57 nM
CCOc1ccc(-c2ccc3nc(N)nc(N4CCN(C(=O)COc5ccc(Cl)cc5)CC4)c3n2)cc1 [Example 494, 2-amino-4-[N-(4-chlorophenoxyacetyl)-piperazin-1-yl]-6-(4-ethoxyphenyl)-pyrido(3,2-d)pyrimidine] | 33 nM
CSc1ccc(-c2ccc3nc(N)nc(N4CCN(C(=O)COc5ccc(Cl)cc5)CC4)c3n2)cc1 [Example 495, 2-amino-4-[N-(4-chlorophenoxyacetyl)-piperazin-1-yl]-6-(4-methylthiophenyl)-pyrido(3,2-d)pyrimidine] | 22 nM
COc1cc(-c2ccc3nc(N)nc(N4CCN(C(=O)COc5ccc(Cl)cc5)CC4)c3n2)ccc1O [Example 496, 2-amino-4-[N-(4-chlorophenoxyacetyl)-piperazin-1-yl]-6-(3-methoxy-4-hydroxyphenyl)-pyrido(3,2-d)pyrimidine] | 71 nM
Nc1nc(N2CCN(C(=O)COc3ccc(Cl)cc3)CC2)c2nc(-c3ccc4c(c3)CCO4)ccc2n1 [Example 497, 2-amino-4-[N-(4-chlorophenoxyacetyl)-piperazin-1-yl]-6-(2,3-dihydro-1-benzofuran-5-yl)-pyrido(3,2-d)pyrimidine] | 210 nM
Cc1cccc(-c2ccc3nc(N)nc(N4CCN(C(=O)COc5ccc(Cl)cc5)CC4)c3n2)c1 [Example 498, 2-amino-4-[N-(4-chlorophenoxyacetyl)-piperazin-1-yl]-6-(3-methyl-phenyl)-pyrido(3,2-d)pyrimidine] | 8 nM
N#CCc1ccc(-c2ccc3nc(N)nc(N4CCN(C(=O)COc5ccc(Cl)cc5)CC4)c3n2)cc1 [Example 499, 2-amino-4-[N-(4-chlorophenoxyacetyl)-piperazin-1-yl]-6-(4-cyanomethyl-phenyl)-pyrido(3,2-d)pyrimidine] | 11 nM
COCc1cccc(-c2ccc3nc(N)nc(N4CCN(C(=O)COc5ccc(Cl)cc5)CC4)c3n2)c1 [Example 500, 2-amino-4-[N-(4-chlorophenoxyacetyl)-piperazin-1-yl]-6-(3-methoxy-methylphenyl)-pyrido(3,2-d)pyrimidine] | 31 nM
COc1cc(-c2ccc3nc(N)nc(N4CCN(C(=O)COc5ccc(Cl)cc5)CC4)c3n2)ccc1OCc1ccccc1 [Example 501, 2-amino-4-[N-(4-chlorophenoxyacetyl)-piperazin-1-yl]-6-(3-methoxy-4-benzyloxyphenyl)-pyrido(3,2-d)pyrimidine] | > 10000 nM
COc1c(C)cc(-c2ccc3nc(N)nc(N4CCN(C(=O)COc5ccc(Cl)cc5)CC4)c3n2)cc1C [Example 502, 2-amino-4-[N-(4-chlorophenoxyacetyl)-piperazin-1-yl]-6-(3,5-dimethyl-4-methoxyphenyl)-pyrido(3,2-d)pyrimidine] | 78 nM
